These results are taken from ChEMBL document CHEMBL1136219, “Synthesis and SAR evaluation of oxadiazolopyrazines as selective Haemophilus influenzae antibacterial agents” (2003).

Holding throughout (type): functional
The subject of one assay is Escherichia coli. Nature of the assay: Minimum inhibitory concentration against Escherichia coli.
The subject of another assay is Streptococcus pneumoniae. Description: Minimum inhibitory concentration against Streptococcus pneumoniae.
The next assay relates to JIYOYE. Nature of the assay: Cytotoxicity against human Jijoye B cell.
Another assay has as its system Candida albicans. Nature of the assay: Minimum inhibitory concentration against Candida albicans.
Another assay concerns Staphylococcus aureus. Description: Minimum inhibitory concentration against Staphylococcus aureus.
In the next assay the test system is Haemophilus influenzae. Description: Minimum inhibitory concentration against Haemophilus influenzae.

Converted amounts (≈) assume the structure as drawn.

In the case of `Oc1nc2nonc2nc1-c1ccc2c(c1)OCO2`, the MIC was > 128 µg/mL against Escherichia coli; 128 µg/mL (≈ 496 µM) in the assay with Streptococcus pneumoniae; > 128 µg/mL against Candida albicans; 64 µg/mL (≈ 248 µM) against Staphylococcus aureus; 2 µg/mL (≈ 7.75 µM) in the assay with Haemophilus influenzae. In addition, the Cytotoxicity with JIYOYE is >100 µg/mL.

As for `Oc1nc2nonc2nc1-c1ccccc1`, the MIC is 128 µg/mL (≈ 598 µM) in the assay with Escherichia coli; 128 µg/mL (≈ 598 µM) against Streptococcus pneumoniae; > 128 µg/mL in the assay with Candida albicans; 128 µg/mL (≈ 598 µM) against Staphylococcus aureus; 1 µg/mL (≈ 4.67 µM) in the assay on Haemophilus influenzae. Also, the Cytotoxicity in the assay on JIYOYE is >100 µg/mL.

For the molecule `Oc1nc2nonc2nc1-c1ccc(N2CCCCC2)cc1`, the MIC in the assay with Escherichia coli is > 128 µg/mL; with Streptococcus pneumoniae, 128 µg/mL (≈ 431 µM); with Candida albicans it was > 128 µg/mL; in the assay on Staphylococcus aureus it was 64 µg/mL (≈ 215 µM); against Haemophilus influenzae, 64 µg/mL (≈ 215 µM). Further, in the assay on JIYOYE, the Cytotoxicity is >100 µg/mL.

On to `Oc1nc2nonc2nc1-c1ccc(N2CCOCC2)cc1`, for which the MIC was > 128 µg/mL with Escherichia coli; 64 µg/mL (≈ 214 µM) against Streptococcus pneumoniae; > 128 µg/mL in the assay with Candida albicans; > 128 µg/mL against Staphylococcus aureus; 32 µg/mL (≈ 107 µM) with Haemophilus influenzae. For the same molecule, the Cytotoxicity with JIYOYE is >100 µg/mL.

In the case of `Oc1nc2nonc2nc1-c1ccc(C(F)(F)F)cc1`, the MIC against Escherichia coli is > 128 µg/mL; against Streptococcus pneumoniae it was 64 µg/mL (≈ 227 µM); with Candida albicans, > 128 µg/mL; against Staphylococcus aureus, 32 µg/mL (≈ 113 µM); against Haemophilus influenzae, 4 µg/mL (≈ 14.2 µM). Also, in the assay with JIYOYE, the Cytotoxicity was >100 µg/mL.

On to `Oc1nc2nonc2nc1-c1ccc(F)cc1`, for which the MIC was > 128 µg/mL in the assay on Escherichia coli; 64 µg/mL (≈ 276 µM) in the assay on Streptococcus pneumoniae; > 128 µg/mL in the assay on Candida albicans; 64 µg/mL (≈ 276 µM) against Staphylococcus aureus; 1 µg/mL (≈ 4.31 µM) against Haemophilus influenzae. For the same molecule, in the assay on JIYOYE, the Cytotoxicity is >100 µg/mL.

With `Oc1nc2nonc2nc1-c1ccccc1Cl`, the MIC was > 128 µg/mL against Escherichia coli; 128 µg/mL (≈ 515 µM) with Streptococcus pneumoniae; > 128 µg/mL in the assay on Candida albicans; > 128 µg/mL against Staphylococcus aureus; 128 µg/mL (≈ 515 µM) in the assay on Haemophilus influenzae. For the same molecule, in the assay on JIYOYE, the Cytotoxicity was >100 µg/mL.

Consider `Oc1nc2nonc2nc1-c1cccc(Br)c1`, for which the MIC against Escherichia coli is > 128 µg/mL; in the assay on Streptococcus pneumoniae, 64 µg/mL (≈ 218 µM); in the assay on Candida albicans it was > 128 µg/mL; in the assay with Staphylococcus aureus it was 32 µg/mL (≈ 109 µM); against Haemophilus influenzae it was 0.5 µg/mL (≈ 1.71 µM). Moreover, the Cytotoxicity in the assay with JIYOYE was >100 µg/mL.

As to `Oc1nc2nonc2nc1-c1ccsc1`, the MIC in the assay with Escherichia coli was 128 µg/mL (≈ 581 µM); in the assay on Streptococcus pneumoniae, 128 µg/mL (≈ 581 µM); against Candida albicans it was > 128 µg/mL; against Staphylococcus aureus it was 64 µg/mL (≈ 291 µM); in the assay with Haemophilus influenzae, 1 µg/mL (≈ 4.54 µM). In addition, in the assay with JIYOYE, the Cytotoxicity amounted to 100 µg/mL.

With `Oc1nc2nonc2nc1-c1ccccc1Br`, the MIC in the assay on Escherichia coli was > 128 µg/mL; against Streptococcus pneumoniae, 128 µg/mL (≈ 437 µM); against Candida albicans it was > 128 µg/mL; against Staphylococcus aureus, > 128 µg/mL; in the assay with Haemophilus influenzae it was 128 µg/mL (≈ 437 µM). The Cytotoxicity in the assay with JIYOYE is >100 µg/mL.

As to `Oc1nc2nonc2nc1-c1c[nH]c2ccccc12`, the MIC was > 128 µg/mL against Escherichia coli; 64 µg/mL (≈ 253 µM) against Streptococcus pneumoniae; > 128 µg/mL against Candida albicans; > 128 µg/mL against Staphylococcus aureus; 8 µg/mL (≈ 31.6 µM) against Haemophilus influenzae. The Cytotoxicity in the assay on JIYOYE is >100 µg/mL.

On to `Oc1nc2nonc2nc1-c1ccc(Cl)cc1`, for which the MIC against Escherichia coli is > 128 µg/mL; with Streptococcus pneumoniae, 128 µg/mL (≈ 515 µM); in the assay with Candida albicans it was > 128 µg/mL; against Staphylococcus aureus, 16 µg/mL (≈ 64.4 µM); against Haemophilus influenzae, 1 µg/mL (≈ 4.02 µM). Moreover, the Cytotoxicity in the assay with JIYOYE was >100 µg/mL.

`Oc1nc2nonc2nc1-c1ccc(Oc2ccccc2)cc1`: the MIC against Escherichia coli was > 128 µg/mL; against Streptococcus pneumoniae, 64 µg/mL (≈ 209 µM); against Candida albicans, > 128 µg/mL; against Staphylococcus aureus, 4 µg/mL (≈ 13.1 µM); against Haemophilus influenzae it was 8 µg/mL (≈ 26.1 µM). Besides, the Cytotoxicity in the assay with JIYOYE was 60 µg/mL.

For the molecule `COc1ccc(-c2nc3nonc3nc2O)cc1`, the MIC with Escherichia coli was > 128 µg/mL; against Streptococcus pneumoniae it was 128 µg/mL (≈ 524 µM); against Candida albicans, > 128 µg/mL; in the assay with Staphylococcus aureus, 64 µg/mL (≈ 262 µM); against Haemophilus influenzae it was 4 µg/mL (≈ 16.4 µM). In the assay on JIYOYE, the Cytotoxicity is >100 µg/mL.

For the molecule `Oc1nc2nonc2nc1-c1cccc(C(F)(F)F)c1`, the MIC in the assay on Escherichia coli is > 128 µg/mL; with Streptococcus pneumoniae it was 128 µg/mL (≈ 454 µM); in the assay with Candida albicans, > 128 µg/mL; in the assay on Staphylococcus aureus, 32 µg/mL (≈ 113 µM); in the assay with Haemophilus influenzae it was 2 µg/mL (≈ 7.09 µM). Further, in the assay on JIYOYE, the Cytotoxicity is >100 µg/mL.

For the molecule `COc1cc(-c2nc3nonc3nc2O)cc(OC)c1OC`, the MIC in the assay with Escherichia coli is > 128 µg/mL; against Streptococcus pneumoniae, 128 µg/mL (≈ 421 µM); with Candida albicans, > 128 µg/mL; in the assay on Staphylococcus aureus, > 128 µg/mL; with Haemophilus influenzae, 128 µg/mL (≈ 421 µM). For the same molecule, the Cytotoxicity in the assay on JIYOYE was >100 µg/mL.

For `CN(C)c1ccc(-c2nc3nonc3nc2O)cc1`, the MIC was > 128 µg/mL in the assay with Escherichia coli; 128 µg/mL (≈ 498 µM) in the assay with Streptococcus pneumoniae; > 128 µg/mL with Candida albicans; > 128 µg/mL in the assay on Staphylococcus aureus; 4 µg/mL (≈ 15.5 µM) against Haemophilus influenzae. Further, the Cytotoxicity with JIYOYE is >100 µg/mL.

For the molecule `Oc1nc2nonc2nc1-c1cccc(F)c1`, the MIC is 128 µg/mL (≈ 551 µM) against Escherichia coli; 64 µg/mL (≈ 276 µM) in the assay on Streptococcus pneumoniae; > 128 µg/mL against Candida albicans; 64 µg/mL (≈ 276 µM) against Staphylococcus aureus; 1 µg/mL (≈ 4.31 µM) against Haemophilus influenzae. Besides, the Cytotoxicity in the assay on JIYOYE is >100 µg/mL.

`O=[N+]([O-])c1cccc(-c2nc3nonc3nc2O)c1`: the MIC with Escherichia coli is > 128 µg/mL; against Streptococcus pneumoniae, 64 µg/mL (≈ 247 µM); in the assay on Candida albicans it was > 128 µg/mL; in the assay on Staphylococcus aureus it was 32 µg/mL (≈ 123 µM); in the assay with Haemophilus influenzae it was 1 µg/mL (≈ 3.86 µM). The Cytotoxicity in the assay on JIYOYE is >100 µg/mL.

On to `Oc1nc2nonc2nc1-c1cccs1`, for which the MIC against Escherichia coli is 128 µg/mL (≈ 581 µM); in the assay with Streptococcus pneumoniae it was 64 µg/mL (≈ 291 µM); in the assay with Candida albicans, > 128 µg/mL; against Staphylococcus aureus it was 32 µg/mL (≈ 145 µM); in the assay on Haemophilus influenzae it was 0.5 µg/mL (≈ 2.27 µM). The Cytotoxicity in the assay on JIYOYE is >100 µg/mL.

Regarding `Oc1nc2nonc2nc1-c1ccc(Br)cc1`, the MIC in the assay with Escherichia coli is > 128 µg/mL; in the assay with Streptococcus pneumoniae it was 64 µg/mL (≈ 218 µM); with Candida albicans, > 128 µg/mL; in the assay with Staphylococcus aureus, 16 µg/mL (≈ 54.6 µM); against Haemophilus influenzae it was 1 µg/mL (≈ 3.41 µM). In addition, the Cytotoxicity with JIYOYE is >100 µg/mL.

Turning to `Oc1nc2nonc2nc1-c1ccccc1F`, the MIC with Escherichia coli was > 128 µg/mL; in the assay with Streptococcus pneumoniae, 64 µg/mL (≈ 276 µM); against Candida albicans, > 128 µg/mL; in the assay with Staphylococcus aureus, > 128 µg/mL; in the assay with Haemophilus influenzae, 8 µg/mL (≈ 34.5 µM). Further, the Cytotoxicity in the assay with JIYOYE is >100 µg/mL.

For the molecule `Cn1cccc1-c1nc2nonc2nc1O`, the MIC against Escherichia coli is > 128 µg/mL; against Streptococcus pneumoniae, 64 µg/mL (≈ 295 µM); against Candida albicans, > 128 µg/mL; in the assay on Staphylococcus aureus, > 128 µg/mL; against Haemophilus influenzae, 8 µg/mL (≈ 36.8 µM). Also, the Cytotoxicity in the assay on JIYOYE was >100 µg/mL.

Turning to `Oc1nc2nonc2nc1-c1cccc(Cl)c1`, the MIC with Escherichia coli was > 128 µg/mL; against Streptococcus pneumoniae it was 64 µg/mL (≈ 257 µM); in the assay with Candida albicans, > 128 µg/mL; in the assay with Staphylococcus aureus, 128 µg/mL (≈ 515 µM); against Haemophilus influenzae it was 1 µg/mL (≈ 4.02 µM). Moreover, the Cytotoxicity in the assay on JIYOYE was >100 µg/mL.

As to `Oc1nc2nonc2nc1-c1ccc[nH]1`, the MIC was > 128 µg/mL against Escherichia coli; 128 µg/mL (≈ 630 µM) with Streptococcus pneumoniae; 128 µg/mL (≈ 630 µM) against Candida albicans; 128 µg/mL (≈ 630 µM) against Staphylococcus aureus; 4 µg/mL (≈ 19.7 µM) against Haemophilus influenzae. Moreover, in the assay with JIYOYE, the Cytotoxicity is >100 µg/mL.

In the case of `Oc1nc2nonc2nc1-c1ccc(C2CCCCC2)cc1`, the MIC was > 128 µg/mL against Escherichia coli; 64 µg/mL (≈ 216 µM) against Streptococcus pneumoniae; > 128 µg/mL against Candida albicans; 4 µg/mL (≈ 13.5 µM) in the assay with Staphylococcus aureus; 16 µg/mL (≈ 54 µM) against Haemophilus influenzae. The molecule further came in with a Cytotoxicity with JIYOYE of 60 µg/mL.

`COc1cccc(-c2nc3nonc3nc2O)c1`: the MIC in the assay with Escherichia coli is > 128 µg/mL; against Streptococcus pneumoniae, 64 µg/mL (≈ 262 µM); in the assay on Candida albicans, > 128 µg/mL; against Staphylococcus aureus it was 128 µg/mL (≈ 524 µM); in the assay with Haemophilus influenzae, 8 µg/mL (≈ 32.8 µM). Moreover, in the assay with JIYOYE, the Cytotoxicity was >100 µg/mL.

For `O=[N+]([O-])c1ccc(-c2nc3nonc3nc2O)cc1`, the MIC against Escherichia coli is > 128 µg/mL; with Streptococcus pneumoniae it was 128 µg/mL (≈ 494 µM); against Candida albicans, > 128 µg/mL; with Staphylococcus aureus, > 128 µg/mL; in the assay on Haemophilus influenzae, 8 µg/mL (≈ 30.9 µM). Further, the Cytotoxicity in the assay with JIYOYE is >100 µg/mL.
